Data from ChEMBL document CHEMBL2073883, “Interaction of docetaxel ("Taxotere") with human P-glycoprotein” (Jpn J Cancer Res, 1999).

Molecular target: ATP-dependent translocase ABCB1 (Homo sapiens, UniProt P08183)
Assay: TP_TRANSPORTER: transepithelial transport (basal to apical) in MDR1-expressing LLC-PK1 cells
Assay type: functional, cell-based
Details: pig

Sequence of ATP-dependent translocase ABCB1 (P08183 whole entry): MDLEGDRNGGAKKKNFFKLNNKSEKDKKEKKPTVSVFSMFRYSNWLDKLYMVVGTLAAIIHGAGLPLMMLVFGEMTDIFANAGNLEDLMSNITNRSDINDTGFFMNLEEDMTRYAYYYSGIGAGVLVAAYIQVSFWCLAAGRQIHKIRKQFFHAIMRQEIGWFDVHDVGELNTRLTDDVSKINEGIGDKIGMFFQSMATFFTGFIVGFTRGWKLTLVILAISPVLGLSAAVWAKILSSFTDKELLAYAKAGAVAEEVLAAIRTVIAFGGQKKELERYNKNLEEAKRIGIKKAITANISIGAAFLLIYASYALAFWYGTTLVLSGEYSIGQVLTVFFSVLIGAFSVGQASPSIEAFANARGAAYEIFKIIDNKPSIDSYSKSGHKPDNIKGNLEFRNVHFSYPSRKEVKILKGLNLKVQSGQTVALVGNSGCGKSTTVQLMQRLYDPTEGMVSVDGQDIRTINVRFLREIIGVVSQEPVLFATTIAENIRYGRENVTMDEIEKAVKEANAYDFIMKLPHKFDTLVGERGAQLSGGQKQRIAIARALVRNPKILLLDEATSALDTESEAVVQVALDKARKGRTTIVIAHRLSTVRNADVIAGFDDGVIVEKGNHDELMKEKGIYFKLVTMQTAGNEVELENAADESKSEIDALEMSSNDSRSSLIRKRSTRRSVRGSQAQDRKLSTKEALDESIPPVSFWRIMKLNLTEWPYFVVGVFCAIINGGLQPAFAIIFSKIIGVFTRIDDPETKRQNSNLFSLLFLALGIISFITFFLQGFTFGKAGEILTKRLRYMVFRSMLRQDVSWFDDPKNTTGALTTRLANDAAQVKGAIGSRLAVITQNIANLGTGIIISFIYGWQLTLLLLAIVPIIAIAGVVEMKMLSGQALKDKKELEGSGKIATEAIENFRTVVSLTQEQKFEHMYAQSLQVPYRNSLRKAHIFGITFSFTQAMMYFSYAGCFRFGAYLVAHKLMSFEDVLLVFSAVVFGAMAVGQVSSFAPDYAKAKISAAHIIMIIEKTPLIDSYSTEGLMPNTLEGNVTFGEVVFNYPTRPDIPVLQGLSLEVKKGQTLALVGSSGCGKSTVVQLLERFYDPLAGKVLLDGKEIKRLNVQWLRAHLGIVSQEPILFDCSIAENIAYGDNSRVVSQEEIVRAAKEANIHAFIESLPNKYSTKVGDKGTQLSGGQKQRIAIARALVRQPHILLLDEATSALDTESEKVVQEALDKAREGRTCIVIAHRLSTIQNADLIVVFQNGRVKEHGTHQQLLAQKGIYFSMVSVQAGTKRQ

Activity: substrate [+]
Structure (SMILES): CC(=O)O[C@@]12CO[C@@H]1C[C@H](O)[C@@]1(C)C(=O)[C@H](O)C3=C(C)[C@@H](OC(=O)[C@H](O)[C@@H](NC(=O)OC(C)(C)C)c4ccccc4)C[C@@](O)([C@@H](OC(=O)c4ccccc4)[C@H]21)C3(C)C.O.O.O [DOCETAXEL]
